This is an account of results in publication doi:10.1101/2020.10.07.312850v1 (bioRxiv, 2020).

Non-standard residues stand in square brackets, D forms with d. Residues, ends and D or L forms follow the SMILES beside them. *: point of attachment. Palmitoyl = CCCCCCCCCCCCCCCC(=O)*

For data set [1] the following is noted: chemical penetration enhancers, cited from earlier work; for Solubility: solvent and source not given; for LogP: source not given.
Data set [2] can be described thus: Peptide human skin retention after 24 h. The data set is classed as in vitro ADME.
In another data set the test system is mushroom tyrosinase. As to conditions: cited from earlier work.
Another data set deals with human tyrosinase. The settings on record: cited from earlier work.
In another data set the test system is melanin. As to conditions: 16 weeks of twice daily treatment; reference not given; cited from earlier work.
Data set [3] is described as follows: In vitro skin permeation testing, Franz type diffusion cells. The class given is in vitro ADME. As to conditions: 5% (w/v) in PG, human epidermis, Franz cell, 32 °C, 24 h.

A word on the Solubility: it is how much of the substance goes into solution per volume. The LogP is a log measure of how a compound divides between an organic and an aqueous phase. Turning to `CC1CCC(C(C)C)C(O)C1` (centres unmarked) [Menthol], in data set [1], the Solubility was 1500 µg/mL and the LogP was 3.2 ± 0.2.

For the molecule “YRSRKYSSWY [Native peptide, decapeptide-12]”, the “Skin retention of peptide after 24 h” value in data set [2] (MN patch, human epidermis, Franz cell, 32 °C, 24 h, HPLC-UV 280 nm, triplicates) is “No peptides were detected”. The “Competitive inhibition compared with hydroquinone” value in the data set on mushroom tyrosinase and with human tyrosinase was “stronger competitive inhibition effect” each time. Moreover, the “Efficacy in reducing content of melanin” value with melanin is “more than 50%”.

With `CCCCCCCC/C=C\CCCCCCCC(=O)O` [Oleic acid], in data set [1], the Solubility was 2 µg/mL and the LogP is listed as 7.4 ± 0.2.

`CCCCCCCCCCCCCCCC(=O)N[C@@H](Cc1ccc(O)cc1)C(=O)N[C@@H](CCCNC(=N)N)C(=O)N[C@@H](CO)C(=O)N[C@@H](CCCNC(=N)N)C(=O)N[C@@H](CCCCN)C(=O)N[C@H](Cc1ccc(O)cc1)C(=O)N[C@@H](CO)C(=O)N[C@@H](CO)C(=O)N[C@@H](Cc1c[nH]c2ccccc12)C(=O)N[C@@H](Cc1ccc(O)cc1)C(N)=O` [Palm-peptide] (Palmitoyl-YRSRK[dY]SSWY-NH2): the “Percentage of peptide retained inside skin (dose-normalised)” value in data set [2] (MN patch, human epidermis, 24 h) is below 0.1%. Also, the “Highest peptide concentration in skin” value in data set [2] (estimated from skin retention after 24 h) is 9.0 µg/g. For the same molecule, the “Effect of CPE on skin permeation” value in data set [3] (menthol) is given as “enhancing effect”; in data set [3] (oleic acid), “inhibitory effects”.

In the case of `CC12CCC(CC1=O)C2(C)C` (centres unmarked) [Camphor], in data set [1], the Solubility is 1100 µg/mL and the LogP was 2.1 ± 0.3.
